The values below come from patent US20260256668A1, “METHODS FOR STRENGTHENING AND REPAIRING HAIR” (Living Proof, Inc., priority 2023, published 2026).

Assay [1] is described as follows: Dia-Stron single fiber tensile (mechanical) testing. As to conditions: 3× bleached hair, compared to bleached hair before treatment (FIG. 8). How it is done: All single fiber tensile measurements are performed using a Dia-Stron MTT686/MTT690 (under 100% extension at gauge force of […], break threshold of 5 g, rate of 20 mm/min, maximum force of 2000 gmf and premature failure threshold of 10% strain). Before the tensile testing, all hair fibers (30 mm in length, ≥20 fibers per treatment) are fixed by 2 brass crimps at the ends and mounted on a Dia-Stron tray. Initial dimension measurements are collected using a Dia-Stron FDAS770 (double ended samples, sample size of 30 mm in length, no of slices of 5 under one rotation per slice), followed by equilibration in Deionized water for at least 2 h prior to testing.

The nature of assay [2]: Hair denaturation temperature (Td) by differential scanning calorimeter (DSC). As to conditions: 3× bleached hair; for hair denaturation temperature (Td) compared to bleached, virgin and phytic acid (PA) treated hair: 2 wt % active aqueous solution, pH 4.0-4.5, 10 min, blow dry (FIGS. 4, 6, 7). How it is done:
European virgin brown hair was bleached three times to obtain the 3× bleached hair model. Each bleaching was done with a mixture of bleaching powder (BW2) and 40V clear developer at 1:2 ratio (5 g mixture per 1.5 g of hair) for 1 hour at room temperature, followed by 30 s water rinse, 1× wash with Sodium Lauryl Ether Sulfate (SLES), and dried in a humidity chamber for 15 min at 50° C., 20% RH. […] For each DSC measurement, a 3-5 mg of hair sample in 50 μL Deionized water is sealed and equilibrated (overnight) in a stainless-steel pressure resistant high-volume pan, then heated from 25° C. to 180° C. at a 5° C./min heating rate.

Assay [3] can be described thus: Water contact angle (surface hydrophobicity), DSA100M Drop Shape Analyzer. How it is done:
For this test, […], which was prepared by treating European virgin brown hair with a mixture of BW2 bleaching powder and clear 30 V developer (1:1.5 ratio, 5 g mixture per 1.5 g of hair) for 20 min under a Belvedere hooded dryer with high heat setting, followed by 30 s water rinse, 30 s 10% SLES wash, and air dry at room temperature. […] In the DSA method, a single hair fiber is mounted in a sample holder and focused by the digital camera of DSA100M. Then a droplet of filtered DI water (20-60 nL) is applied to the top of the hair fiber by a digital droplet applier, A video is then recorded until the disappearance of the water droplet. The water contact angle is obtained using the first image of the water droplet recorded. The data is collected for 3 fibers per treatment and 3 points per fiber, a total of 9 data points per treatment.

For `NCP(=O)(O)O` [AMPA, Aminomethyl phosphonic acid], the “Young's modulus” value in assay [1] is “biggest increases in Young's modulus”. In addition, the “hair denaturation temperature (Td) compared to bleached, virgin and phytic acid (PA) treated hair” value in assay [2] was “full recovery of Td to the virgin level”.
Consider `CCCCCCCCCCCCOP(=O)(O)O` [DPhate, Lauryl phosphate], for which the “water contact angle relative to virgin hair” value in assay [3] (ethanol solution 2 wt %, 10 min, blow dry (FIG. 12)) is “recovered significantly and close to the virgin level”.
Turning to `O=P(O)(O)O[C@H]1[C@H](OP(=O)(O)O)[C@@H](OP(=O)(O)O)[C@H](OP(=O)(O)O)[C@@H](OP(=O)(O)O)[C@H]1OP(=O)(O)O` [PA, phytic acid, reference compound], the “hair surface hydrophobicity (water contact angle) compared to base formula” value in assay [3] (formula with PA 0.75 wt %, with or without DPhate 1 wt % (FIG. 18)) was “significantly improved hair surface hydrophobicity”. The “hair denaturation temperature (Td) compared to the base formula” value in assay [2] (washed, 0.25 g formula (PA 0.75 wt %, with or without DPhate 1 wt %) 10 min, blow dried (FIG. 17)) is given as “significantly increased Td”.
As for `C=CP(=O)(O)O` [VPA, Vinyl phosphonic acid], the “Young's modulus” value in assay [1] is listed as “biggest increases in Young's modulus”. For the same compound, the “hair denaturation temperature (Td) compared to bleached, virgin and phytic acid (PA) treated hair” value in assay [2] was “full recovery of Td to the virgin level”.
With Phosphatidylcholine [PC], the “water contact angle relative to virgin hair” value in assay [3] (aqueous solution 1 wt % active (FIG. 14)) is recorded as “recovered close to the virgin level”.
